US11357786B2, “Synthetic disugar hydrocarbons as natural analogs to control microbial behaviors” (Syracuse University, priority 2014, dated 2022)
Entries after “also recorded” stand apart in the source; their conditions may differ. Read-outs that look alike come from different tables or passages of the source.

Assays:
[1] = system: nonswarming P. aeruginosa mutant rhlA; experiment: Swarming motility of nonswarming rhlA mutant on soft agar (reactivation / agonist assay); format: cell-based, Pseudomonas aeruginosa; settings: for Swarming motility of rhlA mutant: 85 μM in soft agar (0.5%), 24 h
Outline: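 rhlA transposon mutant of PAO1 (3 μl, OD600 0.4–0.6) inoculated on M8 soft agar (0.2% glucose, 0.5% casamino acids, 1 mM MgSO4, 0.5% agar) with test compound to find swarming agonists. Incubated 12 h at 37 °C plus 12 h at room temperature; swarm area measured by weighing paper cut-outs of imaged swarms.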

PAO1 biofilm [2] = experiment: Crystal violet dye based biofilm inhibition assay, maltose derivatives (Example 1); format: cell-based, Pseudomonas aeruginosa; settings: for Inhibition of PAO1 biofilm: 110 μM, 24 h, CV assay; for IC50: CV dye based assay
Experimental: (§1) A crystal violet (CV) assay was used to measure the amount of PAO1 biofilm formed after 24 h of bacterial inoculation. The fluorescence of green fluorescent proteins (GFP) expressed by PAO1-GFP was measured to directly quantify bacterial adhesion on polystyrene black 96 well plates with and without maltose derivatives after 2 h of bacterial inoculation. To evaluate the potential of maltose derivatives as both anti-biofilm and anti-adhesion agents, they were compared to a brominated furanone (BF8) known to inhibit biofilm formation, and two generic surfactants, sodium dodecyl sulfate (SDS) and tetra (ethylene glycol) monododecyl ether (C12EG4OH). […] P. aeruginosa strain PAO1-EGFP that constitutively producing green fluorescent protein was allowed to form biofilm on sterile steel coupons.
Inhibitory effect of all the maltose hydrocarbons on P. aeruginosa biofilm formation was determined by crystal violet dye based biofilm inhibition assays. Overnight culture of wild type P. aeruginosa (PAO1) was sub cultured to an OD600 of 0.01 into the 95:5 M9+:Lb medium. 200 μL of the sub culture was aliquoted into the wells of 96 well polystyrene microtiter plate when it reached the OD600 of 0.1. Predetermined concentrations of the test compounds were then added to the respective wells containing sub culture. Sample plates were wrapped in GLAD Press n′ Seal® followed by incubation under stationary conditions for 24 h at 37° C. After incubation the media was discarded and the plates were washed with water and dried for 1 h at 37° C. The sample plates were stained with 200 μL of 0.1% aqueous solution of crystal violet (CV) and followed by incubation at ambient temperature for 20 min. The CV stain was then discarded and the plates were washed with water. The remaining biofilm adhered stain was re-solubilized with 200 μL of 30% acetic acid. After the stain was dissolved (15 minutes), 100 μL of the solubilized CV was transferred from each well into the corresponding wells of a new polystyrene microtiter dish. Biofilm inhibition was quantified by measuring the OD600 of each well in which a negative control lane wherein no biofilm was formed served as a background and was subtracted out. The percent inhibition was calculated by the comparison of the OD600 for biofilm grown in the absence of compound (control) versus biofilm grown in the presence of compound under identical conditions.
(§2) Predetermined amounts maltose derivatives stock solution was added to the 200 μL bacterial culture in 96 well plate so that the final concentration of the agent reaches the desired values of 1, 5, 10, 20, 40, 85, 113, 140 μM. Biofilm inhibition and dispersion assay was carried as described previously.

PAO1-GFP = experiment: microbe, parasite or virus in culture; format: cell-based, Pseudomonas aeruginosa
Experimental: as §1
Overnight culture of PAO1-GFP was subcultured to an OD600 of 0.01 into the 95:5 M9+:Lb medium. Subculture was allowed to reach the OD600 of 0.1 in a rotary shaker at 250 rpm and 37° C. 200 μL of the subculture was then transferred to the wells of black microtiter plate with and without (control) maltose derivatives. This black 96 well plate was then incubated in a shaker at 37° C. for 2 h. After 2 h, bacterial culture from the plate was discarded and each well was washed once with saline water (0.85 w/v % aqueous NaCl solution). Fresh 95:5 M9+:Lb medium was added to the black 96 well plate and fluorescence of the surface adhered bacteria was measured by Synergy 2 multi-mode microplate reader with Gen5 data analysis software at an excitation wavelength of 500 nm and an emission wavelength of 540 nm. Background signal from 95:5 M9+:Lb medium was eliminated from all the samples.

24 h old PAO1 biofilm = experiment: Crystal violet biofilm dispersion assay, maltose derivatives (Example 1); format: cell-based, Pseudomonas aeruginosa; settings: for DC50: 24 h old biofilm, read-out: Biofilm dispersion DC50 (half-maximal dispersion)
Experimental: Chemical dispersion of already formed biofilm is often more relevant to medical application, and more challenging than biofilm inhibition assays, for which the agents are introduced at the onset of an experiment. We screened the ability of maltose derivatives at 110 μM to disperse 24 h old biofilm.
PAO1 was allowed to grow for 24 h at 37° C. After 24 h, bacterial culture was pipetted out and replaced with 200 μL of 110 μM maltose hydrocarbons and sterile water (control). After 1 h treatment with maltose hydrocarbons, biofilm was fixed and quantified using crystal violet dye as described above. The amount of dispersed biofilm was determined via comparison of the amount of biofilm at 24 h in the presence of maltose hydrocarbons versus the amount of biofilm in the “no compound” positive control at 24 h (wells with water treatment).
as §2

[3] = system: Pseudomonas aeruginosa strain PAO1-BAA-47; experiment: Mouse P. aeruginosa pneumonia model; format: in vivo; settings: SP-A/D KO mice
wild type PAO1 = experiment: Swarming motility of wild type PAO1 on soft agar (antagonist assay); format: cell-based, Pseudomonas aeruginosa
Outline: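 Wild-type PAO1 culture (OD600 ~0.4–0.6, 3 μl) spotted on M8 swarm agar with 0.2% glucose, 0.5% casamino acids, 1 mM MgSO4 and 0.5% agar. Plates incubated 12 h at 37 °C then 12 h at room temperature; swarm area measured by cutting and weighing printed plate images.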

PAO1 biofilm [4] = experiment: Crystal violet based static biofilm inhibition assay, DSHs in LB media (Examples 2 and 4); format: cell-based, Pseudomonas aeruginosa
Outline: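 PAO1 subculture (OD600 ~0.1) was grown statically in LB at 37° C for 24 h with or without DSHs (screened at 160 μM). Surface-attached biofilm was then stained with 0.1% crystal violet, solubilised in 30% AcOH and read at 600 nm. Values are the mean of 4 wells.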

PAO1-EGFP = experiment: Fluorescence adhesion assay on polystyrene, DSHs (Examples 2 and 4); format: cell-based, Pseudomonas aeruginosa; settings: 160 μM
Experimental: The ability of DSHs was tested to inhibit Pseudomonas aeruginosa adhesion, biofilm and to disperse pre-formed biofilm. To quantify the amount of PAO1/EGFP attached on the surface of micro titer plates with or without the synthesized DSHs, fluorescence emitted by green fluorescent proteins (GFP) was quantified (see supporting info for details). Crystal violet (CV) based static biofilm assay (see supporting info) was used to screen the anti-biofilm potencies of all synthesized agents. Both surface attached (SA) (FIG. 17) and total (SA+air-liquid interface) biofilm of P. aeruginosa was quantified. […] CV assays were also used to quantify the amount of P. aeruginosa biofilm remaining after dispersion experiments (FIG. 19). Initially, all agents were screen for anti-biofilm activities (both inhibition and dispersion) at 160 μM. […]
The effect that DSHs have on the adhesion of PAO1-EGFP on polystyrene surface (microtiter plate) was also examined. […] After 24-hours, the fluorescent signal obtained from surface adhered PAO1-EGFP was measured. Percent reduction in fluorescence was calculated by comparing fluorescent signal from PAO1-EGFP grown in LB-media with the signal from wells that had DSHs (FIG. 29A). […] After 24 hours, the surface attached biofilms adhering to the bottom of the wells were stained with crystal-violet dye and the biofilm was quantified by measuring absorbance at 600 nm (OD600). […]

Experimental for Solubility in water: Stock solution of disaccharide hydrocarbons (DSHs). Stock solution (˜11.5 mM) of all synthesized and commercially available DSHs were prepared in autoclaved water and further sterilized by filtering through cellulose acetate syringe filter (0.2 μm pore size, GVS filter technology) into sterilized vials. The vials containing sterilized DSHs stocks were capped and stored at −20° C. and thawed prior to each use. Appropriate volume of sterile water was added to positive controls (no agents) in all assays to eliminate the effect of water. Stock solution of DβL (7), SFβL (15) and 2-ODαC (17) were prepared in sterile water and 200 proof EtOH in 90:10 ratio. For positive controls involving DβL (7), SFβL (15) and 2-ODαC (17) appropriate volumes of 90:10, H2O:EtOH was added.

With 12-hydroxy decyl β-maltose [12-HODeβM] the “Swarming motility of rhlA mutant” value [1] was “did not exhibit any significant activation of swarming”, the “Inhibition of PAO1 biofilm” value (PAO1 biofilm [2]) was “about 30%” and the “Inhibition of PAO1 biofilm” value (PAO1 biofilm [2]; listed as HODeβM) was 32%. For the same compound, the “Inhibition of PAO1-EGFP adhesion on polystyrene” value (PAO1-GFP; 85 μM, 2 h) was “about 7%”.

With CC1=C(Br)/C(=C/Br)OC1=O [BF8] the “Inhibition of PAO1 biofilm” value (PAO1 biofilm [2]) was “about 35%” and the “Inhibition of PAO1 adhesion on polystyrene” value (PAO1-GFP; 100 μM) was “showed no inhibition; also recorded: does not inhibit the adhesion”.

In the case of O=C(c1ccccc1)c1ccc(COCCCCCCCCCCO[C@@H]2O[C@H](CO)[C@@H](O[C@H]3O[C@H](CO)[C@@H](O)[C@H](O)[C@H]3O)[C@H](O)[C@H]2O)cc1 [BPDeβM, benzophenonyl decyl β-maltoside], the “Swarming motility of rhlA mutant” value [1] is reported as “swarming motility with without well-defined tendrils”, the IC50 (PAO1 biofilm [2]) is reported as 22.5 µM and the DC50 (24 h old PAO1 biofilm) is reported as 31 µM.

For CCCCCCCCCCCCO[C@@H]1O[C@H](CO)[C@@H](O[C@H]2O[C@H](CO)[C@@H](O)[C@H](O)[C@H]2O)[C@H](O)[C@H]1O [DM, Dodecyl Maltoside], the “CFU number in the lung” value ([3]; 50 μl of 170 μM intratracheal 24 h after infection, sacrifice 24 h later) was “significantly decreased CFU number in the lung” and the “Lung inflammation (histology, H&E)” value ([3]; 50 μl of 170 μM intratracheal) was “improved the lung inflammation”.

With CCCCCCCCCCCC[N+](C)(C)C.[Cl-] [DTAC, dodecyl trimethyl ammonium chloride, reference compound] the “Reactivation of swarming motility of rhlA mutant” value ([1]; concentration not given) was “did not promote or reactivate”, the “Anti-biofilm activity (inhibition)” value (PAO1 biofilm [2]; concentration not given) was “did not show any anti-biofilm activities” and the “Anti-biofilm activity (dispersion)” value (24 h old PAO1 biofilm; concentration not given) was “did not show any anti-biofilm activities”.

With CCCCCCCCCCCCO[C@@H]1O[C@@H](C)[C@H](O)[C@@H](O)[C@H]1O [DαR (9), dodecyl-α-rhamnoside] the “Swarming motility of rhlA mutant” value [1] was “no apparent effect on rhlA”, the “Swarming motility of wild type PAO1” value (wild type PAO1; 85 μM in soft agar, 24 h) was “inhibited the swarming motility of wild type PAO1” and the “Effect on PAO1 swarming” value (wild type PAO1; concentration not given) was “PAO1 swarming inhibitors”. For the same compound, the “Inhibition of PAO1 biofilm formation (surface attached)” value (PAO1 biofilm [4]; 160 μM, 24 h, LB media, listed as 8: DαR, 160 µM) was “poor anti-biofilm activity”, the “Anti-biofilm activity (biofilm inhibition)” value (PAO1 biofilm [4]; concentration not given) was “weak anti-biofilm activity” and the “Adhesion inhibition of PAO1-EGFP on polystyrene” value (PAO1-EGFP) was 63%.

For CC(C)CCCC(C)CCCC(C)CCO[C@@H]1O[C@H](CO)[C@@H](O[C@@H]2O[C@H](CO)[C@H](O)[C@H](O)[C@H]2O)[C@H](O)[C@H]1O (stereo partly drawn) [SFβL (15), saturated famesyl-β-lactoside], the Solubility in water (Solubility in water) was “poor water-solubility” and the Solubility in water (Solubility in water; listed as 15: SFβL) was “poor solubility in water; also recorded: not soluble in either water or in water/EtOH mixture”.

For benzyl dodecyl β-maltoside [BDβM], the “Swarming motility of rhlA mutant” value [1] was “swarming motility with without well-defined tendrils”, the IC50 (PAO1 biofilm [2]) was 27.5 µM and the DC50 (24 h old PAO1 biofilm) was 32 µM.
